Assay [1] has as its system Tumor Cell line. Description: Tested for in vitro cytotoxicity of 60 human tumor cell lines in National Cancer Institute (NCI) and the value was expressed as LC50. It is filed as functional. Conditions: read-out: LC50 (the source's name).
Assay [2] deals with Tumor Cell line. Description: Tested for in vitro cytotoxicity of 60 human tumor cell lines in National Cancer Institute (NCI). It is filed as functional.

SMILES strings stand for the structures. Some results are limits rather than exact numbers.

For orientation: GI50 means the concentration giving 50% growth inhibition. A low value points to more potent growth inhibition. The TGI is the concentration giving total growth inhibition.

`C=C(Cl)[C@](Cl)(CBr)CCC(Br)=C(C)C`: the CC50 in assay [1] amounted to 13.5 µM. In addition, in assay [2], growth was halved (GI50) at 0.691 µM and net growth stopped (TGI) at 3.02 µM.
For `CC1(C)[C@H](Cl)C=C/C(=C\CCl)[C@@H]1Cl`, in that order: above 100 µM, 20 µM and 47.9 µM.
For `CC1(C)C(Br)=C(C(Cl)CBr)CCC1Br` (stereo unspecified), in that order: 93.3 µM, 21.9 µM and 45.7 µM.
For `C=C(Cl)[C@](Cl)(CBr)CC[C@H](Cl)C(C)(C)Br`, in that order: 16.2 µM, 1.32 µM and 4.47 µM.
Regarding `CC1(C)C(Cl)CC(Br)/C(=C\CCl)C1Cl` (stereo unspecified), the CC50 in assay [1] came to 20 µM. In assay [2], this molecule returned a GI50 of 1.15 µM and a TGI of 4.68 µM.
For `C=CC(Cl)(CBr)CCC=C(C)C` (stereo unspecified), in that order: above 100 µM, 33.1 µM and above 100 µM.
For `C=C(Cl)[C@](Cl)(CBr)CCC=C(C)C`, in that order: above 100 µM, 47 µM and above 100 µM.
For `C=CC1=CCC(Br)C(C)(C)C1Cl` (stereo unspecified), in that order: above 100 µM, above 100 µM and above 100 µM.
With `C=C(Cl)/C(=C\Br)CCC=C(C)C`, the CC50 in assay [1] was above 100 µM. Besides, in assay [2], it took 19.5 µM to inhibit growth by half (GI50) and the TGI was found to be 44.7 µM.
For `C=C(Cl)[C@](Cl)(CBr)CC[C@@H](Br)C(C)(C)Cl` [HALOMON], in that order: 11.5 µM, 0.676 µM and 3.02 µM.
For `C=C(Cl)[C@](Cl)(CBr)CCC(Cl)=C(C)C`, in that order: 17 µM, 0.741 µM and 3.39 µM.
For `C=C[C@](Cl)(CBr)CC[C@@H](Br)C(C)(C)Cl`, in that order: above 100 µM, 26.1 µM and 77 µM.

These data come from ChEMBL document CHEMBL1127297, “Isolation and structure/activity features of halomon-related antitumor monoterpenes from the red alga Portieria hornemannii” (1994).
